# Assay results taken from patent US6358995B1, “Carboxylic acid derivatives having fused rings” (Eisai Co., Ltd., priority 1996, dated 2002).
# What was measured:
# Experiment in all cases: Transcription accelerating activity through RARs (PLAP reporter in COS-1 cells)
# Format in all cases: cell-based
# Details in all cases: relative to ED30 of all-trans retinoic acid = 1, ED30 = concentration giving 30% of activity induced by 1 μM all-trans retinoic acid
# [1] = target: T1, RAR-α (Homo sapiens, UniProt P10276)
# T1 construct: expressed in transfected cells; host or cells: COS-1 (African green monkey kidney cells), transient lipofection
# T1 sequence (P10276 1-462): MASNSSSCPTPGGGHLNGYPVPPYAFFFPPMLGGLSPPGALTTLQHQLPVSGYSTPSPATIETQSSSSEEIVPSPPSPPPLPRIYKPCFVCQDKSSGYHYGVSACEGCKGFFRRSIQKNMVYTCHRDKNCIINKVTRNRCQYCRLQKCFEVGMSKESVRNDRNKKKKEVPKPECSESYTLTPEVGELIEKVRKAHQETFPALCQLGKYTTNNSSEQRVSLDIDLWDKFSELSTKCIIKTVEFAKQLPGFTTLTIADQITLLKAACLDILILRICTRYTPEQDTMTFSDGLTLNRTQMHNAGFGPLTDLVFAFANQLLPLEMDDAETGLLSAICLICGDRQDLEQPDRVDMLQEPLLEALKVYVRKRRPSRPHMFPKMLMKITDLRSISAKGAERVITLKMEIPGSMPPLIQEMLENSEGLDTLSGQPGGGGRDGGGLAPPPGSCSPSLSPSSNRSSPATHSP
# Text: (§1) Measurement of the Activities of Accelerating Trans-cription Through RARs
# (§2) Human RAR Expression Vectors and secretory alkaline phosphatase (PLAP) gene vectors (PLAP vectors) containing in a state integrated into the upstream a competent sequence whose expression is […] through binding with RAR depending on a ligand were temporarily transferred into COS-1 (African green monkey kidney cells), and the PLAP which had been produced depending on a ligand and secreted into a culture medium was analyzed by the chemiluminescence method to determine the transcription-accelerating activity of each compound. Further, the selectivity of each compound among RARs was determined by comparing the transcription accelerating activities of the compound for the receptors with each other.
# (§3) On a 60-mm culture dish were scattered 2.5×10^4 COS-1 cells. Four days after, human RAR α, β and γ expression vectors and PLAP vectors were transferred into the cells each in an amount of 4 μg by the lipofection method. Another day after, the resulting cells were recovered, and put on a 96-well culture plate in an amount of 2×10^4 per unit well. Four hours after, the cells were put on a medium containing charcoal-treated fetal bovine serum, followed by the addition of a dilution of all-trans retinoic acid or a test compound. After the lapse of 36 hours, the supernatant was recovered and the resulting samples were treated at 65° C. for 10 minutes to eliminate the non-specific activity. 15 μl of each sample was mixed with 60 μl of a 28 mM sodium carbonate buffer(pH10), followed by the addition of 75 μl of Smilight (trade name, a product of Sumitomo Metal Industries, Ltd., substrate for chemiluminescence). The resulting mixture was reacted at 37° C. for 30 minutes and the intensity of luminescence was determined. The compounds which will be described below induced the transcription activities of RARs dependently on the concentration.
# [2] = target: T2, RAR-β (Homo sapiens, UniProt P10826)
# T2 construct: expressed in transfected cells; host or cells: COS-1 (African green monkey kidney cells), transient lipofection
# T2 sequence (P10826 1-455): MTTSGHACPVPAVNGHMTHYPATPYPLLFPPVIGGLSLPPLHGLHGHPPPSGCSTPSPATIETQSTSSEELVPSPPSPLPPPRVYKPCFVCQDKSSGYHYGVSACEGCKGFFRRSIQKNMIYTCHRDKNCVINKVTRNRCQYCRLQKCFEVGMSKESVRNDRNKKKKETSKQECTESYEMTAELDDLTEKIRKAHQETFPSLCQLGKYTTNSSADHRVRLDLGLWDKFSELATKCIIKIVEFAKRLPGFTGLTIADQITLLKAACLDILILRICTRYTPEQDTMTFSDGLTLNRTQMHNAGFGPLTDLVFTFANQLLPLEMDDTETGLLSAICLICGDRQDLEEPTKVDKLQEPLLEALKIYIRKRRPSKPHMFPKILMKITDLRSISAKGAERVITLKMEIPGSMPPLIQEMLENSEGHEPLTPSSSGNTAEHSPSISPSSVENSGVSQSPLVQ
# Text: as §1, §2, §3
# [3] = target: T3, RAR-γ (Homo sapiens, UniProt P13631)
# T3 construct: expressed in transfected cells; host or cells: COS-1 (African green monkey kidney cells), transient lipofection
# T3 sequence (P13631 1-454): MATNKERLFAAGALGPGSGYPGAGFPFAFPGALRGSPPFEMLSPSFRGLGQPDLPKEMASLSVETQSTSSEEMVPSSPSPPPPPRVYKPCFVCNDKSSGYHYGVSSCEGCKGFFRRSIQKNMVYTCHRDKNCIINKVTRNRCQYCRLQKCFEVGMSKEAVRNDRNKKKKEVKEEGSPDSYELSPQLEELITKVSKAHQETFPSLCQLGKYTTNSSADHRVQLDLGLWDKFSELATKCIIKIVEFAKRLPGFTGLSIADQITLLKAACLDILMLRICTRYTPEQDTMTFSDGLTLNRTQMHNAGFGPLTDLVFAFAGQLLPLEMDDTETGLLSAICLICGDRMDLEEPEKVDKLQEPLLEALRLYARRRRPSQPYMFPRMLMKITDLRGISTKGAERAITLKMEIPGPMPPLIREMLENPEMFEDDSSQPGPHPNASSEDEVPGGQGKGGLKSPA
# Text: as §1, §2, §3
compound,measurement,setting,value
"CCc1cccc2cc(-c3ccc(-c4ccc(C(=O)O)cc4)[nH]3)oc12 [Example 55, 4-{2-[5-(7-Ethylbenzofurn-2-yl)pyrrolyl]}benzoic acid]",Transcription accelerating activity Relative ED30 RAR-α,[1],0.20
same,Transcription accelerating activity Relative ED30 RAR-β,[2],31
same,Transcription accelerating activity Relative ED30 RAR-γ,[3],120
"Cc1cccc2ccc(-c3ccc(-c4ccc(C(=O)O)cc4)[nH]3)cc12 [Example 6, 4-{2-[5-(8-Methylnaphthalen-2-yl)pyrrolyl]}benzoic acid]",Transcription accelerating activity Relative ED30 RAR-α,[1],0.9
same,Transcription accelerating activity Relative ED30 RAR-β,[2],110
same,Transcription accelerating activity Relative ED30 RAR-γ,[3],240
"CCc1cc(Cl)cc2cc(-c3ccc(-c4ccc(C(=O)O)cc4)[nH]3)oc12 [Example 23, 4-{2-[5-(5-Chloro-7-ethylbenzofuran-2-yl)pyrrolyl]}benzoic acid]",Transcription accelerating activity Relative ED30 RAR-α,[1],0.40
same,Transcription accelerating activity Relative ED30 RAR-β,[2],67
same,Transcription accelerating activity Relative ED30 RAR-γ,[3],330
"Cc1cccc2c1C=C(c1ccc(-c3ccc(C(=O)O)cc3)[nH]1)CO2 [Example 129, 4-{2-[5-(5-Methyl-2H-chromen-3-yl)pyrrolyl]}benzoic acid]",Transcription accelerating activity Relative ED30 RAR-α,[1],4.4
same,Transcription accelerating activity Relative ED30 RAR-β,[2],1050
same,Transcription accelerating activity Relative ED30 RAR-γ,[3],2400
"Cc1cc(C)c2oc(-c3ccc(-c4ccc(C(=O)O)cc4)[nH]3)cc2c1 [Example 50, 4-{2-[5-(5,7-Dimethylbenzofuran-2-yl)pyrrolyl]}benzoic acid]",Transcription accelerating activity Relative ED30 RAR-α,[1],0.38
same,Transcription accelerating activity Relative ED30 RAR-β,[2],280
same,Transcription accelerating activity Relative ED30 RAR-γ,[3],710
"O=C(O)c1ccc(-c2ccc(-c3cc4c(Cl)ccc(Cl)c4o3)[nH]2)cc1 [Example 14, 4-{2-[5-(4,7-Dichlorobenzofuran-2-yl)pyrrolyl]}benzoic acid]",Transcription accelerating activity Relative ED30 RAR-α,[1],1.0
same,Transcription accelerating activity Relative ED30 RAR-β,[2],160
same,Transcription accelerating activity Relative ED30 RAR-γ,[3],1400
"CC1=CCOc2ccc(-c3ccc(-c4ccc(C(=O)O)cc4)[nH]3)cc21 [Example 133, 4-{2-[5-(4-Methyl-2H-chromen-6-yl)pyrrolyl]}benzoic acid]",Transcription accelerating activity Relative ED30 RAR-α,[1],3.2
same,Transcription accelerating activity Relative ED30 RAR-β,[2],250
same,Transcription accelerating activity Relative ED30 RAR-γ,[3],780
"CCc1cccc2ccc(-c3ccc(-c4ccc(C(=O)O)cc4)[nH]3)cc12 [Example 7, 4-{2-[5-(8-Ethylnaphthalen-2-yl)pyrrolyl]}benzoic acid]",Transcription accelerating activity Relative ED30 RAR-α,[1],0.9
same,Transcription accelerating activity Relative ED30 RAR-β,[2],36
same,Transcription accelerating activity Relative ED30 RAR-γ,[3],190
"O=C(O)c1ccc(-c2ccc(-c3cc4cccc(Cl)c4o3)[nH]2)cc1 [Example 15, 4-{2-[5-(7-Chlorobenzofuran-2-yl)pyrrolyl]}benzoic acid]",Transcription accelerating activity Relative ED30 RAR-α,[1],3.1
same,Transcription accelerating activity Relative ED30 RAR-β,[2],940
same,Transcription accelerating activity Relative ED30 RAR-γ,[3],2100
"CCc1ccc(Cl)c2cc(-c3ccc(-c4ccc(C(=O)O)cc4)[nH]3)oc12 [Example 20, 4-{2-[5-(4-Chloro-7-ethylbenzofuran-2-yl)pyrrolyl]}benzoic acid]",Transcription accelerating activity Relative ED30 RAR-α,[1],0.66
same,Transcription accelerating activity Relative ED30 RAR-β,[2],59
same,Transcription accelerating activity Relative ED30 RAR-γ,[3],300
"O=C(O)c1ccc(-c2ccc(-c3cc4c(F)ccc(F)c4o3)[nH]2)cc1 [Example 27, 4-{2-[5-(4,7-Difluorobenzofuran-2-yl)pyrrolyl]}benzoic acid]",Transcription accelerating activity Relative ED30 RAR-α,[1],0.63
same,Transcription accelerating activity Relative ED30 RAR-β,[2],170
same,Transcription accelerating activity Relative ED30 RAR-γ,[3],1000
"Cc1c(-c2ccc(-c3ccc(C(=O)O)cc3)[nH]2)oc2c(Cl)ccc(Cl)c12 [Example 46, 4-{2-[5-(4,7-Dichloro-3-methylbenzofuran-2-yl)pyrrolyl]}benzoic acid]",Transcription accelerating activity Relative ED30 RAR-α,[1],0.63
same,Transcription accelerating activity Relative ED30 RAR-β,[2],14
same,Transcription accelerating activity Relative ED30 RAR-γ,[3],240
"COc1ccc2ccc(-c3ccc(-c4ccc(C(=O)O)cc4)[nH]3)cc2c1C [Example 4, 4-{2-[5-(7-Methoxy-8-methylnaphthalen-2-yl)pyrrolyl]}benzoic acid]",Transcription accelerating activity Relative ED30 RAR-α,[1],49
same,Transcription accelerating activity Relative ED30 RAR-β,[2],— (—; >4000)
same,Transcription accelerating activity Relative ED30 RAR-γ,[3],— (—; >4000)
"Cc1ccc(C)c2oc(-c3ccc(-c4ccc(C(=O)O)cc4)[nH]3)cc12 [Example 13, 4-{2-[5-(4,7-Dimethylbenzofuran-2-yl)pyrrolyl]}benzoic acid]",Transcription accelerating activity Relative ED30 RAR-α,[1],0.4
same,Transcription accelerating activity Relative ED30 RAR-β,[2],13
same,Transcription accelerating activity Relative ED30 RAR-γ,[3],48
"CCc1cc(F)cc2cc(-c3ccc(-c4ccc(C(=O)O)cc4)[nH]3)oc12 [Example 25, 4-{2-[5-(5-Fluoro-7-ethylbenzofuran-2-yl)pyrrolyl]}benzoic acid]",Transcription accelerating activity Relative ED30 RAR-α,[1],0.65
same,Transcription accelerating activity Relative ED30 RAR-β,[2],62
same,Transcription accelerating activity Relative ED30 RAR-γ,[3],63
"O=C(O)c1ccc(-c2ccc(-c3cc4c(F)ccc(Cl)c4o3)[nH]2)cc1 [Example 42, 4-{2-[5-(4-Fluoro-7-chlorobenzofuran-2-yl)pyrrolyl]}benzoic acid]",Transcription accelerating activity Relative ED30 RAR-α,[1],0.33
same,Transcription accelerating activity Relative ED30 RAR-β,[2],91
same,Transcription accelerating activity Relative ED30 RAR-γ,[3],790
"CCCc1cccc2cc(-c3ccc(-c4ccc(C(=O)O)cc4)[nH]3)oc12 [Example 16, 4-{2-[5-(7-n-Propylbenzofuran-2-yl)pyrrolyl]}benzoic acid]",Transcription accelerating activity Relative ED30 RAR-α,[1],1.0
same,Transcription accelerating activity Relative ED30 RAR-β,[2],74
same,Transcription accelerating activity Relative ED30 RAR-γ,[3],410
"Cc1ccc(C)c2c(C)c(-c3ccc(-c4ccc(C(=O)O)cc4)[nH]3)oc12 [Example 47, 4-{2-[5-(3,4,7-Trimethylbenzofuran-2-yl)pyrrolyl]}benzoic acid]",Transcription accelerating activity Relative ED30 RAR-α,[1],0.80
same,Transcription accelerating activity Relative ED30 RAR-β,[2],2.4
same,Transcription accelerating activity Relative ED30 RAR-γ,[3],41
"CCc1ccc(OC)c2ccc(-c3ccc(-c4ccc(C(=O)O)cc4)[nH]3)cc12 [Example 90, 4-{2-[5-(5-Methoxy-8-ethylnaphthalen-2-yl)pyrrolyl]}benzoic acid]",Transcription accelerating activity Relative ED30 RAR-α,[1],3.1
same,Transcription accelerating activity Relative ED30 RAR-β,[2],450
same,Transcription accelerating activity Relative ED30 RAR-γ,[3],1400
"CCc1ccc(C)c2cc(-c3ccc(-c4ccc(C(=O)O)cc4)[nH]3)oc12 [Example 17, 4-{2-[5-(4-Methyl-7-ethylbenzofuran-2-yl)pyrrolyl]}benzoic acid]",Transcription accelerating activity Relative ED30 RAR-α,[1],0.26
same,Transcription accelerating activity Relative ED30 RAR-β,[2],24
same,Transcription accelerating activity Relative ED30 RAR-γ,[3],120
